Test results as given in US11161856B2 (H. Lundbeck A/S, priority 2017, dated 2021).

Experiments:
[1] = biological target: T1, MGLL (Mus musculus, UniProt O35678); experiment: In vitro competitive activity-based protein profiling, mouse brain proteome (MGLL); type: biochemical; settings: concentration not given (μM)
T1 construct: Brain; from tissue; host or cells: mouse brain proteome
T1 sequence (O35678 1-303): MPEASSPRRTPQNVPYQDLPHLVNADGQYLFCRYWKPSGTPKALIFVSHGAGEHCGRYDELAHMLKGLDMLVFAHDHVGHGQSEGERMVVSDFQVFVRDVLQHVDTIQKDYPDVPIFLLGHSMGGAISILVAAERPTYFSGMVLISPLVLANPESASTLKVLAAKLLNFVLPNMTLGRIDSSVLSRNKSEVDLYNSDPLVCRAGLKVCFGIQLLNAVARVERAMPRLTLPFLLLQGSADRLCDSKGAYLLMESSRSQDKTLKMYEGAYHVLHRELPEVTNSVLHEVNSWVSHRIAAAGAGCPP

[2] = biological target: T2, ABHD6 (Mus musculus, UniProt Q8R2Y0); experiment: In vitro competitive activity-based protein profiling, mouse brain proteome (ABHD6); type: biochemical; settings: mouse brain proteome; concentration not given (μM)
T2 construct: Brain; from tissue; host or cells: mouse brain proteome
T2 sequence (Q8R2Y0 1-336): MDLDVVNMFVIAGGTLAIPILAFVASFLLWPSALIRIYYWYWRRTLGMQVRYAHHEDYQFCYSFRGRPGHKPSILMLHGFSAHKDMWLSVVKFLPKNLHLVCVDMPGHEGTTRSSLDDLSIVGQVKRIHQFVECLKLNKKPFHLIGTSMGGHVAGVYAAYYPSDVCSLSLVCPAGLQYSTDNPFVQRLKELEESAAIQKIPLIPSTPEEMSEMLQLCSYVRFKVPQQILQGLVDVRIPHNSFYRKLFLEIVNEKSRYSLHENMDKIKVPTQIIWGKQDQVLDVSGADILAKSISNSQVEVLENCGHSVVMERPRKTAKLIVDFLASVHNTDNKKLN
Experimental: [The source words this procedure for another target and reports this target under the same test.] In Vitro Competitive Activity-Based Protein Profiling.
Proteomes (human prefrontal cortex or cell membrane fractions) (50 μL, 1.0 mg/mL total protein concentration) were preincubated with varying concentrations of inhibitors at 37° C. After 30 min, FP-Rh or HT-01 (1.0 μL, 50 μM in DMSO) was added and the mixture was incubated for another 30 min at room temperature. Reactions were quenched with SDS loading buffer (15 μL-4×) and run on SDS-PAGE.

SMILES: COc1ccc(CN2CC3(CCN(C(=O)OC(C(F)(F)F)C(F)(F)F)CC3)C2)cc1 [Example 85, 1,1,1,3,3,3-Hexafluoropropan-2-yl 2-(4-methoxybenzyl)-2,7-diazaspiro[3.5]nonane-7-carboxylate]
- % Inh MGLL Brain (Mouse, μM) [1]: ### (### is ≥75%)
- % Inh ABHD6 Brain (Mouse, μM) [2]: ### (### is ≥75%)

SMILES: Cc1cccc(CN2CC3(CCN(C(=O)OC(C(F)(F)F)C(F)(F)F)CC3)C2)c1 [Example 86, 1,1,1,3,3,3-Hexafluoropropan-2-yl 2-(3-methylbenzyl)-2,7-diazaspiro[3.5]nonane-7-carboxylate]
- % Inh MGLL Brain (Mouse, μM) [1]: ### (### is ≥75%)
- % Inh ABHD6 Brain (Mouse, μM) [2]: ### (### is ≥75%)

SMILES: COc1cccc(CN2CC3(CCN(C(=O)OC(C(F)(F)F)C(F)(F)F)CC3)C2)c1 [Example 87, 1,1,1,3,3,3-Hexafluoropropan-2-yl 2-(3-methoxybenzyl)-2,7-diazaspiro[3.5]nonane-7-carboxylate]
- % Inh MGLL Brain (Mouse, μM) [1]: ### (### is ≥75%)
- % Inh ABHD6 Brain (Mouse, μM) [2]: ### (### is ≥75%)

SMILES: O=C(OC(C(F)(F)F)C(F)(F)F)N1CCC2(CC1)CN(Cc1ccccc1N1CCCC1)C2 [Example 88, 1,1,1,3,3,3-Hexafluoropropan-2-yl 2-(2-(pyrrolidin-1-yl)benzyl)-2,7-diazaspiro[3.5]nonane-7-carboxylate]
- % Inh MGLL Brain (Mouse, μM) [1]: ### (### is ≥75%)
- % Inh ABHD6 Brain (Mouse, μM) [2]: ### (### is ≥75%)

SMILES: O=C(OC(C(F)(F)F)C(F)(F)F)N1CCC2(CC1)CN(Cc1cccc(C(F)(F)F)c1)C2 [Example 89, 1,1,1,3,3,3-Hexafluoropropan-2-yl 2-(3-(trifluoromethyl)benzyl)-2,7-diazaspiro[3.5]nonane-7-carboxylate]
- % Inh MGLL Brain (Mouse, μM) [1]: ### (### is ≥75%)
- % Inh ABHD6 Brain (Mouse, μM) [2]: ### (### is ≥75%)

SMILES: O=C(OC(C(F)(F)F)C(F)(F)F)N1CCC2(CC1)CN(Cc1cccc(N3CCOCC3)c1)C2 [Example 90, 1,1,1,3,3,3-Hexafluoropropan-2-yl 2-(3-morpholinobenzyl)-2,7-diazaspiro[3,5]nonane-7-carboxylate]
- % Inh MGLL Brain (Mouse, μM) [1]: ### (### is ≥75%)
- % Inh ABHD6 Brain (Mouse, μM) [2]: ### (### is ≥75%)

SMILES: Cc1ccccc1CN1CC2(CCN(C(=O)OC(C(F)(F)F)C(F)(F)F)CC2)C1 [Example 91, 1,1,1,3,3,3-Hexafluoropropan-2-yl 2-(2-methylbenzyl)-2,7-diazaspiro[3.5]nonane-7-carboxylate]
- % Inh MGLL Brain (Mouse, μM) [1]: ### (### is ≥75%)
- % Inh ABHD6 Brain (Mouse, μM) [2]: ### (### is ≥75%)

SMILES: COc1ccccc1CN1CC2(CCN(C(=O)OC(C(F)(F)F)C(F)(F)F)CC2)C1 [Example 92, 1,1,1,3,3,3-Hexafluoropropan-2-yl 2-(2-methoxybenzyl)-2,7-diazaspiro[3.5]nonane-7-carboxylate]
- % Inh MGLL Brain (Mouse, μM) [1]: ### (### is ≥75%)
- % Inh ABHD6 Brain (Mouse, μM) [2]: ### (### is ≥75%)

SMILES: O=C(OC(C(F)(F)F)C(F)(F)F)N1CCC2(CC1)CN(Cc1ccc(F)cc1)C2 [Example 93, 1,1,1,3,3,3-Hexafluoropropan-2-yl 2-(4-fluorobenzyl)-2,7-diazaspiro[3,5]nonane-7-carboxylate]
- % Inh MGLL Brain (Mouse, μM) [1]: ### (### is ≥75%)
- % Inh ABHD6 Brain (Mouse, μM) [2]: ### (### is ≥75%)

SMILES: O=C(OC(C(F)(F)F)C(F)(F)F)N1CCC2(CC1)CN(Cc1cccc(N3CCCC3)c1)C2 [Example 94, 1,1,1,3,3,3-Hexafluoropropan-2-yl 2-(3-(pyrrolidin-1-yl)benzyl)-2,7-diazaspiro[3.5]nonane-7-carboxylate]
- % Inh MGLL Brain (Mouse, μM) [1]: ### (### is ≥75%)
- % Inh ABHD6 Brain (Mouse, μM) [2]: ### (### is ≥75%)

SMILES: O=C(OC(C(F)(F)F)C(F)(F)F)N1CCC2(CC1)CN(Cc1ccccc1C(F)(F)F)C2 [Example 95, 1,1,1,3,3,3-Hexafluoropropan-2-yl 2-(2-(trifluoromethyl)benzyl)-2,7-diazaspiro[3.5]nonane-7-carboxylate]
- % Inh MGLL Brain (Mouse, μM) [1]: ### (### is ≥75%)
- % Inh ABHD6 Brain (Mouse, μM) [2]: ### (### is ≥75%)

SMILES: O=C(OC(C(F)(F)F)C(F)(F)F)N1CCC2(CC1)CN(Cc1ccccc1N1CCOCC1)C2 [Example 96, 1,1,1,3,3,3-Hexafluoropropan-2-yl 2-(2-morpholinobenzyl)-2,7-diazaspiro[3,5]nonane-7-carboxylate]
- % Inh MGLL Brain (Mouse, μM) [1]: ### (### is ≥75%)
- % Inh ABHD6 Brain (Mouse, μM) [2]: ### (### is ≥75%)

SMILES: O=C(OC(C(F)(F)F)C(F)(F)F)N1CCC2(CC1)CN(Cc1cccc(F)c1)C2 [Example 97, 1,1,1,3,3,3-Hexafluoropropan-2-yl 2-(3-fluorobenzyl)-2,7-diazaspiro[3.5]nonane-7-carboxylate]
- % Inh MGLL Brain (Mouse, μM) [1]: ### (### is ≥75%)
- % Inh ABHD6 Brain (Mouse, μM) [2]: ### (### is ≥75%)

SMILES: O=C(OC(C(F)(F)F)C(F)(F)F)N1CCC2(CC1)CN(Cc1ccccc1F)C2 [Example 98, 1,1,1,3,3,3-Hexafluoropropan-2-yl 2-(2-fluorobenzyl)-2,7-diazaspiro[3.5]nonane-7-carboxylate]
- % Inh MGLL Brain (Mouse, μM) [1]: ### (### is ≥75%)
- % Inh ABHD6 Brain (Mouse, μM) [2]: ### (### is ≥75%)

SMILES: O=C(OC(C(F)(F)F)C(F)(F)F)N1CCC2(CC1)CN(Cc1ccc(C(F)(F)F)cc1N1CCCC1)C2 [Example 151, 1,1,1,3,3,3-Hexafluoropropan-2-yl 2-(2-(pyrrolidin-1-yl)-4-(trifluoromethyl)benzyl)-2,7-diazaspiro[3.5]nonane-7-carboxylate]
- % Inh MGLL Brain (Mouse, μM) [1]: ### (### is ≥75%)
- % Inh ABHD6 Brain (Mouse, μM) [2]: ### (### is ≥75%)

SMILES: CC(=O)N1CCCc2cccc(CN3CCC4(CC3)CN(C(=O)OC(C(F)(F)F)C(F)(F)F)C4)c21 [Example 152, 1,1,1,3,3,3-Hexafluoropropan-2-yl 7-((1-acetyl-1,2,3,4-tetrahydroquinolin-8-yl)methyl)-2,7-diazaspiro[3.5]nonane-2-carboxylate]
- % Inh MGLL Brain (Mouse, μM) [1]: ### (### is ≥75%)
- % Inh ABHD6 Brain (Mouse, μM) [2]: ### (### is ≥75%)

SMILES: CS(=O)(=O)N1CCC2(CCN(c3ccccc3CN3CCN(C(=O)OC(C(F)(F)F)C(F)(F)F)CC3)C2)C1 (centres unmarked) [Example 165, 1,1,1,3,3,3-Hexafluoropropan-2-yl 4-(2-(7-(methylsulfonyl)-2,7-diazaspiro[4.4]nonan-2-yl)benzyl)piperazine-1-carboxylate]
- % Inh MGLL Brain (Mouse, μM) [1]: ### (### is ≥75%)
- % Inh ABHD6 Brain (Mouse, μM) [2]: # (# is ≤25%)

SMILES: CC(=O)N1CCC2(CCN(c3ccccc3CN3CCN(C(=O)OC(C(F)(F)F)C(F)(F)F)CC3)C2)C1 (centres unmarked) [Example 166, 1,1,1,3,3,3-Hexafluoropropan-2-yl 4-(2-(7-acetyl-2,7-diazaspiro[4.4]nonan-2-yl)benzyl)piperazine-1-carboxylate]
- % Inh MGLL Brain (Mouse, μM) [1]: ### (### is ≥75%)
- % Inh ABHD6 Brain (Mouse, μM) [2]: # (# is ≤25%)

SMILES: CS(=O)(=O)N1CC2(CCN(c3ccccc3CN3CCN(C(=O)OC(C(F)(F)F)C(F)(F)F)CC3)C2)C1 [Example 167, 1,1,1,3,3,3-Hexafluoropropan-2-yl 4-(2-(2-(methylsulfonyl)-2,6-diazaspiro[3,4]octan-6-yl)benzyl)piperazine-1-carboxylate]
- % Inh MGLL Brain (Mouse, μM) [1]: ### (### is ≥75%)
- % Inh ABHD6 Brain (Mouse, μM) [2]: # (# is ≤25%)

SMILES: CC(=O)N1CC2(CCN(c3ccccc3CN3CCN(C(=O)OC(C(F)(F)F)C(F)(F)F)CC3)C2)C1 [Example 168, 1,1,1,3,3,3-Hexafluoropropan-2-yl 4-(2-(2-acetyl-2,6-diazaspiro[3.4]octan-6-yl)benzyl)piperazine-1-carboxylate]
- % Inh MGLL Brain (Mouse, μM) [1]: ### (### is ≥75%)
- % Inh ABHD6 Brain (Mouse, μM) [2]: # (# is ≤25%)

SMILES: CN1CC2(CCN(c3cc(Cl)ccc3CN3CCN(C(=O)OC(C(F)(F)F)C(F)(F)F)CC3)C2)C1 [Example 169, 1,1,1,3,3,3-Hexafluoropropan-2-yl 4-(4-chloro-2-(2-methyl-2,6-diazaspiro[3.4]octan-6-yl)benzyl)piperazine-1-carboxylate]
- % Inh MGLL Brain (Mouse, μM) [1]: ### (### is ≥75%)
- % Inh ABHD6 Brain (Mouse, μM) [2]: # (# is ≤25%)

SMILES: CCN1CCC2(CCN(c3cc(Cl)ccc3CN3CCN(C(=O)OC(C(F)(F)F)C(F)(F)F)CC3)CC2)C1 [Example 170, 1,1,1,3,3,3-Hexafluoropropan-2-yl 4-(4-chloro-2-(2-ethyl-2,8-diazaspiro[4.5]decan-8-yl)benzyl)piperazine-1-carboxylate]
- % Inh MGLL Brain (Mouse, μM) [1]: ### (### is ≥75%)
- % Inh ABHD6 Brain (Mouse, μM) [2]: # (# is ≤25%)
